Reference: the NIST ThermoML archive (doi:10.1016/j.tca.2014.04.018)
Several values for one entry are separate records, joined by “and”; a condition that tells them apart may be missing. Equal values may be shown once. ± gives the expanded uncertainty stated by the source.

Conditions: Liquid, Calculated from knudsen effusion weight loss

CCCc1cc(=O)[nH]c(=S)[nH]1 [6-propyl-2-thiouracil]
Conditions | vapor or sublimation pressure
401.14 K | 0.000103 ± 5e-06 kPa and 0.000101 ± 5e-06 kPa and 9.7e-05 ± 5e-06 kPa
403.18 K | 0.000124 ± 6e-06 kPa and 0.000123 ± 6e-06 kPa and 0.000118 ± 6e-06 kPa
405.17 K | 0.000151 ± 8e-06 kPa and 0.000144 ± 7e-06 kPa
407.15 K | 0.000196 ± 1e-05 kPa and 0.000185 ± 9e-06 kPa and 0.000178 ± 9e-06 kPa
409.17 K | 0.000231 ± 1.2e-05 kPa and 0.000224 ± 1.1e-05 kPa and 0.000216 ± 1.1e-05 kPa
411.16 K | 0.000274 ± 1.4e-05 kPa and 0.000265 ± 1.3e-05 kPa
413.15 K | 0.000332 ± 1.7e-05 kPa and 0.000325 ± 1.6e-05 kPa and 0.000317 ± 1.6e-05 kPa
415.17 K | 0.00041 ± 2.1e-05 kPa and 0.000398 ± 2e-05 kPa and 0.000382 ± 1.9e-05 kPa
417.18 K | 0.000484 ± 2.4e-05 kPa and 0.000485 ± 2.4e-05 kPa and 0.000468 ± 2.3e-05 kPa
419.15 K | 0.000583 ± 2.9e-05 kPa and 0.000558 ± 2.8e-05 kPa
421.22 K | 0.000714 ± 3.6e-05 kPa and 0.000706 ± 3.5e-05 kPa and 0.00068 ± 3.4e-05 kPa
423.21 K | 0.000853 ± 4.3e-05 kPa and 0.000839 ± 4.2e-05 kPa and 0.00083 ± 4.2e-05 kPa
